Experimental data published in ChEMBL document CHEMBL1201862, “PubChem BioAssay data set” (2004).
The source made the active and inactive calls.

Assays:
Kallikrein-7 = Kallikrein-7 (Homo sapiens, UniProt P49862); test: Fluorescence Intensity-based biochemical primary high throughput dose response assay to identify activators of kallikrein-7 (K7) zymogen.
[1] = cytotoxicity in MITF-independent A375 cells – cell-based, CellTiter-Glo luminescence, dry powder, set 4, counter-screen for MITF inhibitor project, dose response (AID 624364); type: functional; conditions: A-375;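 note: A375 melanoma cells are MITF independent so this is a counter screen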
[2] = viability loss in MITF-independent A375 cells – cell-based, CellTiter-Glo luminescence, dry powder, set 2, counter-screen for MITF inhibitor project, dose response (AID 624489); type: functional; conditions: A-375;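 note: actives are compounds lowering A375 viability meaning general cytotoxicity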
[3] = Luminescence Cell-Based Dose Confirmation HTS to Identify Activators of 5'UTR Stem-Loop Driven Alpha-Synuclein mRNA Translation in H4 Neuroglioblastoma Cells. [Related pubchem assays: 1829 (Project Summary), 1814 (Primary HTS)]; type: functional
[4] = Luminescence Cell-Based Dose Response HTS to Identify Activators of Luciferase Translation or Activity in H4 […] Cells. [Related pubchem assays: 1829 (Project Summary), 1814 (Primary HTS)]; type: functional
cells [5] = type: functional, cell-based
H4 = test: Luminescence Cell-Based Dose Response HTS to Identify Activators of 5'UTR Stem-Loop Driven Prion Protein mRNA Translation in H4 Neuroglioblastoma Cells. [Related pubchem assays: 1829 (Project Summary), 1814 (Primary HTS)]; type: functional; conditions: Homo sapiens
cells [6] = type: functional, cell-based; remark: listed apart in the source
[7] = target: T1, Oxysterols receptor LXR-beta (Homo sapiens, UniProt P55055); type: functional, cell-based;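 note: agonist activity at LXR measured by a cell-based luminescence readout across a dose range, run as a counterscreen for daf-12 agonists; HEK293 cells with Gal4-LXR fusion and GAL4-driven luciferase reporter; potency for activation of Gal4-LXR reporter so compounds are agonists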
T1 sequence (P55055 whole entry): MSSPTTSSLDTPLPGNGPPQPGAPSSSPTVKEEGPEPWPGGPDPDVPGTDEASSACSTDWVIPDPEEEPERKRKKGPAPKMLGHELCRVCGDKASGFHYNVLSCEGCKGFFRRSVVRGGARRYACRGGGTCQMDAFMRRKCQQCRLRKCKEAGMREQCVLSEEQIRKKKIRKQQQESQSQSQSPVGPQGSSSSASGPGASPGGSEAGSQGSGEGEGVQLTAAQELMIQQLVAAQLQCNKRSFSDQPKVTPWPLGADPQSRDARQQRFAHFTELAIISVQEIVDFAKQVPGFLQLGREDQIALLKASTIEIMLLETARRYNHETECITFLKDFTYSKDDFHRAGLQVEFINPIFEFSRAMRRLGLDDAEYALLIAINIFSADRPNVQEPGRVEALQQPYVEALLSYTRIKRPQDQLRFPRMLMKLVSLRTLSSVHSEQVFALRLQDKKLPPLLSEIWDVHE

[8] = target: Photoreceptor-specific nuclear receptor (Homo sapiens, UniProt Q9Y5X4); type: functional, cell-based;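 note: CHO-S cells with Gal4-NCOR and VP16-NR2E3 two-hybrid luciferase reporter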
[9] = target: COUP transcription factor 2 (Homo sapiens, UniProt P24468); test: Luminescence-based cell-based high throughput dose response assay to identify inhibitors of COUP-TFII (NR2F2).; type: functional;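 note: HEK293 cells transiently cotransfected with COUP-TFII expression vector and reporter; luciferase reporter luminescence driven by COUP-TFII from the pX2-168 reporter plasmid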
Chain of COUP transcription factor 2 (P24468 whole entry): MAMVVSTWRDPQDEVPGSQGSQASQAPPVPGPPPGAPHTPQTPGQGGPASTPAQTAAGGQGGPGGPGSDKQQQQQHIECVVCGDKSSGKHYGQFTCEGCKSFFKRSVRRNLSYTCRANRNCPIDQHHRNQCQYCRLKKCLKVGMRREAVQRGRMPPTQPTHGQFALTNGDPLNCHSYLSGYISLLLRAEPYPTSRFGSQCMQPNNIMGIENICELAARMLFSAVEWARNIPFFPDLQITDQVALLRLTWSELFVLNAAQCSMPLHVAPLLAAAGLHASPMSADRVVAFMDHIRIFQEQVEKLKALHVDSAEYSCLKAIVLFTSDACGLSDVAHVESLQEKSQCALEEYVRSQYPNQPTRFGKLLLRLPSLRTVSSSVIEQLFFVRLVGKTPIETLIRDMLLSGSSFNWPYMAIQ

Chain of Kallikrein-7 (P49862 whole entry): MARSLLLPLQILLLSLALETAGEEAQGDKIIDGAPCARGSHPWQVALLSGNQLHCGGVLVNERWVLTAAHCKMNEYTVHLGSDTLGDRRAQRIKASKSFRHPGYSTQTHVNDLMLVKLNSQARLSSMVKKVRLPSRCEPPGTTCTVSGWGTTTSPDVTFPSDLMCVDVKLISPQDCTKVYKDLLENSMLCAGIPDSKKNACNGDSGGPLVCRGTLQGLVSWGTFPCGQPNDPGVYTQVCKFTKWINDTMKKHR
Chain of Photoreceptor-specific nuclear receptor (Q9Y5X4 whole entry, the tested form may be a part): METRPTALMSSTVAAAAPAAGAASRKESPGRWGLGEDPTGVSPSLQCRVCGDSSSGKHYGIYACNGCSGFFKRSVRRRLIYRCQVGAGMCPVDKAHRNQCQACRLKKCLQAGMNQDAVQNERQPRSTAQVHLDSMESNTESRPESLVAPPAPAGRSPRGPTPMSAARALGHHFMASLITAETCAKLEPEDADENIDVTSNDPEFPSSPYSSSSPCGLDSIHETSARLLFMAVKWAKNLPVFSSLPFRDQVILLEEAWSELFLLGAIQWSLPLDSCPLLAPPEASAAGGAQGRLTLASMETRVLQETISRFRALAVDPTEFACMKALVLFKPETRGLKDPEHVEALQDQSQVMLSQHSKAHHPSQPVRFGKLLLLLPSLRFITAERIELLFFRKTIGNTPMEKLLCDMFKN

Compound: COCCNC(=O)Cc1c(C)c2cc3c(cc2oc1=O)OC(C)(C)CC3
- EC50 (Kallikrein-7): > 69.6 µM (inactive)

Compound: COCCCn1c(C(=O)NCCN2CCOCC2)cc2c(=O)n3cccc(C)c3nc21
- EC50 (Kallikrein-7): > 69.5 µM (inactive)

Compound: COc1ccc(C2=C(NC(=O)c3ccc4ccccc4c3)C(=O)c3ccccc3C2=O)cc1
- AC50 [1]: > 70 µM (inactive)
- AC50 [2]: > 70 µM (inactive)

Compound: Cc1ccc(NC(S)=NC(=NS(=O)(=O)c2ccccc2)c2ccccc2)cc1
- EC50 [3]: 5.09 µM (active)
- EC50 [4]: 16.5 µM (active)
- EC50 (cells [5]): > 350 µM (not active)
- EC50 (H4): 6.51 µM (active)
- EC50 (cells [6]): 202 µM (active)
- EC50 [7]: > 67.5 µM (inactive)

Compound: CCCc1cc(=O)n2nc(N3CCC(C(=O)N4CCN(c5ccc(OC)cc5)CC4)CC3)sc2n1
- IC50 [8]: 4.09 µM (active)
- IC50 [9]: 7.18 µM (active)
